# Where two headings read alike, the source gives them in different places.
# How the values were obtained:
# [1] = molecular target: T1, human CA-XII (Homo sapiens, UniProt O43570); test: Surface Plasmon Resonance (SPR) binding kinetics to recombinant human CA-XII (Biacore 8K, single-cycle kinetics, 1:1 binding model)
# T1 construct: purchased Creative BioMart CA12-261H
# Outline: (§1)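 Proteins were captured on streptavidin chips at 1200-1800 RU (CA-IX 180 s, CA-XII 75 s injection). Compound was run at 9 concentrations (100-0.39 nM) in PBS-P+ pH 7.4 with 1% DMSO, 120 s association, 1200 s dissociation, 25° C. Rate constants came from reference- and DMSO-corrected curves.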
# [2] = molecular target: T2, human CA-IX (Homo sapiens, UniProt Q16790); test: Surface Plasmon Resonance (SPR) binding kinetics to recombinant human CA-IX (Biacore 8K, single-cycle kinetics, 1:1 binding model)
# T2 construct: purchased Acro CA9-H82E3
# Outline: as §1
# [3] = Chelated Metal: Lu-175, 25° C., pH 7.4, read-out: CAXII KD
# [4] = Chelated Metal: Lu-175; SPR, 25° C., pH 7.4; read-out: CAIX KD
# [5] = read-out: CAXII KD, Chelated Metal: Lu-175, 25° C., pH 7.4
# [6] = read-out: CAIX KD; Chelated Metal: Lu-175; SPR, 25° C., pH 7.4
# T1 sequence (O43570 25-354): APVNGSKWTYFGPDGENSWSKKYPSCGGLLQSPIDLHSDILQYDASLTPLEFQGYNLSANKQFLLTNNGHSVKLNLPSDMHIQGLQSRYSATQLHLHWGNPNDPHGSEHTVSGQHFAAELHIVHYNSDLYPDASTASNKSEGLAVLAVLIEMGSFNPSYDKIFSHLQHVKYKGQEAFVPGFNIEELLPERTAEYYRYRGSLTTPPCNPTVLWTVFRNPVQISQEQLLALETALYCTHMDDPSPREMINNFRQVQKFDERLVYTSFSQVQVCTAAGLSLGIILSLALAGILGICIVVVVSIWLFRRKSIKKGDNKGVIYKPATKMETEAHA
Compound,"Kd [1, 3] [nM]","Kd [2, 4] [nM]","Kd [1, 5] [nM]","Kd [2, 6] [nM]"
NS(=O)(=O)c1nnc(NC(=O)C23CC(c4cn(CCNC(=O)[C@@H]5CN(C(=O)CN6CCN(CC(=O)O)CCN(CC(=O)O)CCN(CC(=O)O)CC6)CCN5C(=O)CNC(=O)C5(C(=O)O)CCN(C(=O)CCc6n[nH]c7ccccc67)CC5)nn4)(C2)C3)s1.[Lu+3] [Compound 112.4],> 10,2.5 to 10,–,–
NS(=O)(=O)c1nnc(NC(=O)C23CC(c4cn(CCNC(=O)[C@@H]5CN(C(=O)CN6CCN(CC(=O)O)CCN(CC(=O)O)CCN(CC(=O)O)CC6)CCN5C(=O)CNC(=O)C5(C(=O)O)CCN(C(=O)CCCc6n[nH]c7ccccc67)CC5)nn4)(C2)C3)s1.[Lu+3] [Compound 112.5],> 10,2.5 to 10,–,–
NS(=O)(=O)c1nnc(NC(=O)C23CC(c4cn(CCNC(=O)[C@@H]5CN(C(=O)CN6CCN(CC(=O)O)CCN(CC(=O)O)CCN(CC(=O)O)CC6)CCN5C(=O)CNC(=O)C5(C(=O)O)CCN(C(=O)Cc6n[nH]c7ccccc67)CC5)nn4)(C2)C3)s1.[Lu+3] [Compound 112.6],> 10,1 to 2.5,–,–
NS(=O)(=O)c1nnc(NC(=O)C23CC(c4cn(CCNC(=O)[C@@H]5CN(C(=O)CN6CCN(CC(=O)O)CCN(CC(=O)O)CCN(CC(=O)O)CC6)CCN5C(=O)CNC(=O)C5(C(=O)O)CCN(C(=O)CCC6CCCCCC6)CC5)nn4)(C2)C3)s1.[Lu+3] [Compound 112.7],> 10,< 1,–,–
NS(=O)(=O)c1nnc(NC(=O)C23CC(c4cn(CCNC(=O)[C@@H]5CN(C(=O)CN6CCN(CC(=O)O)CCN(CC(=O)O)CCN(CC(=O)O)CC6)CCN5C(=O)CNC(=O)C5(C(=O)O)CCN(C(=O)CC6CC7(CCC7)C6)CC5)nn4)(C2)C3)s1.[Lu+3] [Compound 112.8],2.5 to 10,< 1,–,–
NS(=O)(=O)c1nnc(NC(=O)C23CC(c4cn(CCNC(=O)[C@@H]5CN(C(=O)CN6CCN(CC(=O)O)CCN(CC(=O)O)CCN(CC(=O)O)CC6)CCN5C(=O)CNC(=O)C5(C(=O)O)CCN(C(=O)c6ccc(C7CC7)cc6)CC5)nn4)(C2)C3)s1.[Lu+3] [Compound 112.9],> 10,< 1,–,–
NS(=O)(=O)c1nnc(NC(=O)C23CC(c4cn(CCNC(=O)[C@@H]5CN(C(=O)CN6CCN(CC(=O)O)CCN(CC(=O)O)CCN(CC(=O)O)CC6)CCN5C(=O)CNC(=O)C5(C(=O)O)CCN(C(=O)c6n[nH]c7ccccc67)CC5)nn4)(C2)C3)s1.[Lu+3] [Compound 112.10],> 10,< 1,–,–
NS(=O)(=O)c1nnc(NC(=O)C23CC(c4cn(CCNC(=O)[C@@H]5CN(C(=O)CN6CCN(CC(=O)O)CCN(CC(=O)O)CCN(CC(=O)O)CC6)CCN5C(=O)CNC(=O)C5(C(=O)O)CCN(C(=O)c6cc(C(F)(F)F)n[nH]6)CC5)nn4)(C2)C3)s1.[Lu+3] [Compound 112.11],> 10,2.5 to 10,–,–
NS(=O)(=O)c1nnc(NC(=O)C23CC(c4cn(CCNC(=O)[C@@H]5CN(C(=O)CN6CCN(CC(=O)O)CCN(CC(=O)O)CCN(CC(=O)O)CC6)CCN5C(=O)CNC(=O)C5(C(=O)O)CCN(C(=O)Cc6ccc(C7CC7)cc6)CC5)nn4)(C2)C3)s1.[Lu+3] [Compound 112.12],> 10,1 to 2.5,–,–
Cc1c(C(F)(F)F)n[nH]c1C(=O)N1CCC(C(=O)O)(C(=O)NCC(=O)N2CCN(C(=O)CN3CCN(CC(=O)O)CCN(CC(=O)O)CCN(CC(=O)O)CC3)C[C@H]2C(=O)NCCn2cc(C34CC(C(=O)Nc5nnc(S(N)(=O)=O)s5)(C3)C4)nn2)CC1.[Lu+3] [Compound 112.13],> 10,1 to 2.5,–,–
NS(=O)(=O)c1nnc(NC(=O)C23CC(c4cn(CCNC(=O)[C@@H]5CN(C(=O)CN6CCN(CC(=O)O)CCN(CC(=O)O)CCN(CC(=O)O)CC6)CCN5C(=O)CNC(=O)C5(C(=O)O)CCN(C(=O)Cc6c[nH]nc6C(F)(F)F)CC5)nn4)(C2)C3)s1.[Lu+3] [Compound 112.14],> 10,2.5 to 10,–,–
NS(=O)(=O)c1nnc(NC(=O)C23CC(c4cn(CCNC(=O)[C@@H]5CN(C(=O)CN6CCN(CC(=O)O)CCN(CC(=O)O)CCN(CC(=O)O)CC6)CCN5C(=O)CNC(=O)C5(C(=O)O)CCN(C(=O)Cc6n[nH]c7ccc(F)cc67)CC5)nn4)(C2)C3)s1.[Lu+3] [Compound 112.15],> 10,1 to 2.5,–,–
NS(=O)(=O)c1nnc(NC(=O)C23CC(c4cn(CCNC(=O)[C@@H]5CN(C(=O)CN6CCN(CC(=O)O)CCN(CC(=O)O)CCN(CC(=O)O)CC6)CCN5C(=O)CNC(=O)C5(C(=O)O)CCN(C(=O)Cc6ccc7[nH]ncc7c6)CC5)nn4)(C2)C3)s1.[Lu+3] [Compound 112.16],> 10,2.5 to 10,–,–
NS(=O)(=O)c1nnc(NC(=O)C23CC(c4cn(C[C@H]5CN(C(=O)CN6CCN(CC(=O)O)CCN(CC(=O)O)CCN(CC(=O)O)CC6)CCN5C(=O)CNC(=O)C5(C(=O)O)CCN(C(=O)Cc6n[nH]c7ccccc67)CC5)nn4)(C2)C3)s1.[Lu+3] [Compound 112.17],1 to 2.5,< 1,–,–
CC(CCCC(=O)N1CCC(C(=O)O)(C(=O)NCC(=O)N2CCN(C(=O)CN3CCN(CC(=O)O)CCN(CC(=O)O)CCN(CC(=O)O)CC3)C[C@H]2C(=O)NCCn2cc(C34CC(C(=O)Nc5nnc(S(N)(=O)=O)s5)(C3)C4)nn2)CC1)(c1ccc(O)cc1)c1ccc(O)cc1.[Lu+3] [Compound 112.18],> 10,1 to 2.5,–,–
NS(=O)(=O)c1nnc(NC(=O)C23CC(c4cn(CCNC(=O)[C@@H]5CN(C(=O)CN6CCN(CC(=O)O)CCN(CC(=O)O)CCN(CC(=O)O)CC6)CCN5C(=O)CNC(=O)C5(C(=O)O)CCN(C(=O)CCCCc6ccc(I)cc6)CC5)nn4)(C2)C3)s1.[Lu+3] [Compound 112.19],> 10,< 1,–,–
NS(=O)(=O)c1nnc(NC(=O)C23CC(c4cn(CCNC(=O)[C@@H]5CN(C(=O)CN6CCN(CC(=O)O)CCN(CC(=O)O)CCN(CC(=O)O)CC6)CCN5C(=O)CNC(=O)C5(C(=O)O)CCN(C(=O)c6ccc(C7CC7)nn6)CC5)nn4)(C2)C3)s1.[Lu+3] [Compound 112],–,–,> 10,2.5 to 10
NC(=O)C1(C(=O)NCC(=O)N2CCN(C(=O)CN3CCN(CC(=O)O)CCN(CC(=O)O)CCN(CC(=O)O)CC3)C[C@H]2C(=O)NCCn2cc(C34CC(C(=O)Nc5nnc(S(N)(=O)=O)s5)(C3)C4)nn2)CCN(C(=O)c2ccc(C3CC3)nn2)CC1.[Lu+3] [Compound 113],–,–,> 10,2.5 to 10
NS(=O)(=O)c1nnc(NC(=O)C23CC(c4cn(C[C@H]5CN(C(=O)CN6CCN(CC(=O)O)CCN(CC(=O)O)CCN(CC(=O)O)CC6)CCN5C(=O)C[C@H](NC(=O)[C@@H]5COCCN5C(=O)Cc5n[nH]c6ccccc56)C(=O)O)nn4)(C2)C3)s1.[Lu+3] [Compound 114.1],> 10,1 to 2.5,–,–
NS(=O)(=O)c1nnc(NC(=O)C23CC(c4cn(C[C@H]5CN(C(=O)CN6CCN(CC(=O)O)CCN(CC(=O)O)CCN(CC(=O)O)CC6)CCN5C(=O)[C@@H]5COCCN5C(=O)Cc5n[nH]c6ccccc56)nn4)(C2)C3)s1.[Lu+3] [Compound 114.2],> 10,1 to 2.5,–,–
NS(=O)(=O)c1nnc(NC(=O)C23CC(c4cn(C[C@H]5CN(C(=O)CN6CCN(CC(=O)O)CCN(CC(=O)O)CCN(CC(=O)O)CC6)CCN5C(=O)[C@@H]5COCCN5C(=O)CCc5n[nH]c6ccccc56)nn4)(C2)C3)s1.[Lu+3] [Compound 114.3],> 10,1 to 2.5,–,–
CC(CCC(=O)N1CCOC[C@H]1C(=O)N[C@@H](CC(=O)N1CCN(C(=O)CN2CCN(CC(=O)O)CCN(CC(=O)O)CCN(CC(=O)O)CC2)C[C@@H]1Cn1cc(C23CC(C(=O)Nc4nnc(S(N)(=O)=O)s4)(C2)C3)nn1)C(=O)O)(c1ccc(O)cc1)c1ccc(O)cc1.[Lu+3] [Compound 114],–,–,> 10,1 to 2.5
NS(=O)(=O)c1nnc(NC(=O)C23CC(c4cn(C[C@H]5CN(C(=O)CN6CCN(CC(=O)O)CCN(CC(=O)O)CCN(CC(=O)O)CC6)CCN5c5nccc(NCCc6n[nH]c7ccccc67)n5)nn4)(C2)C3)s1.[Lu+3] [Compound 115],–,–,> 10,2.5 to 10
CC(CCC(=O)N[C@@H](CC(=O)N[C@@H](CC(=O)NC1(CCCCn2cc(CCCCC(=O)Nc3nnc(S(N)(=O)=O)s3)nn2)CCN(C(=O)OCCOCCNC(=O)CN2CCN(CC(=O)O)CCN(CC(=O)O)CCN(CC(=O)O)CC2)CC1)C(=O)O)C(=O)O)(c1ccc(O)cc1)c1ccc(O)cc1.[Lu+3] [Compound 116.1],2.5 to 10,1 to 2.5,–,–
CC(CCC(=O)N[C@@H](CC(=O)N[C@@H](CC(=O)NC1(CCCCn2cc(CCCC(=O)Nc3nnc(S(N)(=O)=O)s3)nn2)CCN(C(=O)OCCOCCNC(=O)CN2CCN(CC(=O)O)CCN(CC(=O)O)CCN(CC(=O)O)CC2)CC1)C(=O)O)C(=O)O)(c1ccc(O)cc1)c1ccc(O)cc1.[Lu+3] [Compound 116.2],2.5 to 10,1 to 2.5,–,–
CC(CCC(=O)N[C@@H](CC(=O)N[C@@H](CC(=O)NC1(CCCCn2cc(CCC(=O)Nc3nnc(S(N)(=O)=O)s3)nn2)CCN(C(=O)OCCOCCNC(=O)CN2CCN(CC(=O)O)CCN(CC(=O)O)CCN(CC(=O)O)CC2)CC1)C(=O)O)C(=O)O)(c1ccc(O)cc1)c1ccc(O)cc1.[Lu+3] [Compound 116.4],> 10,2.5 to 10,–,–
CC(CCC(=O)N[C@@H](CC(=O)N[C@@H](CC(=O)NC1(CCCCn2cc(CCCC(=O)Nc3nnc(S(N)(=O)=O)s3)nn2)CCN(C(=O)CN2CCN(CC(=O)O)CCN(CC(=O)O)CCN(CC(=O)O)CC2)CC1)C(=O)O)C(=O)O)(c1ccc(O)cc1)c1ccc(O)cc1.[Lu+3] [Compound 116],–,–,2.5 to 10,1 to 2.5
CC(CCCC(=O)N1CCOC[C@H]1C(=O)N[C@@H](CC(=O)NC1(C(=O)NCCn2cc(C34CC(C(=O)Nc5nnc(S(N)(=O)=O)s5)(C3)C4)nn2)CCN(C(=O)CN2CCN(CC(=O)O)CCN(CC(=O)O)CCN(CC(=O)O)CC2)CC1)C(=O)O)(c1ccc(O)cc1)c1ccc(O)cc1.[Lu+3] [Compound 117.3],> 10,< 1,–,–
